Assay results reported in the pKa sets of Baltruschat and Czodrowski (2020).

Conditions: acidic group

Structure (SMILES)	pKa
CC(=O)N1CCC[C@H]1C(=O)O	3.21
O=CC1CCCCC1=O (stereo not drawn)	6.35
Cc1cc(C)c(O)cc1C	10.6
Oc1ccc(Cl)cc1C[NH+]1CCCCC1	8.14
Cc1cc(C(=O)O)c[nH]1	5.35
NNC(=O)C(F)F	9.66
O=C1Cc2c1ccc(O)c2[N+](=O)[O-]	3.98
CCCC(=O)c1cc(C(C)=O)n[nH]1	9.28
O[n+]1ccc(OCc2ccccc2)cc1	1.99
COc1cc(C(N)=O)ccc1-c1nc2nn(C)cc2[nH]1	12.3
[O-]c1cc(O)cc[nH+]1	6.5
O=C(O)c1cc([N+](=O)[O-])cs1	2.83
CCNC(=O)CS	8.14
Sc1ccc(Br)cc1	5.8
Nc1ccc(S(=O)(=O)Nc2ncco2)cc1	6.5
COc1nc([N+](=O)[O-])n[nH]1	5.35
O=C(/C(=N\O)c1ccccc1)c1ccccc1	10
[O-]c1cc([O-])cc(O)c1	14.1
Cn1nc(-c2ccccc2)cc1O	10.9
O=C(O)C[Se]c1ccccc1[N+](=O)[O-]	3.45
O=C(Cc1ccccc1)c1cc[n+](Cc2cccc([N+](=O)[O-])c2)cc1	8.68
C[NH+](C)Cc1cc(C(C)(C)C)cc(C[NH+](C)C)c1O	6.3
S=CNc1cccc(Cl)c1	10.8
CC(C)[C@H]1C[NH2+][C@H](C(=O)O)[C@H]1CC(=O)O	2.12
CCn1nnnc1NC(C)=O	8.38

Structure (SMILES)	pKa
CC(=O)CC(=S)Nc1ccccc1	7.5
O=C(O)c1cc([N+](=O)[O-])ccc1O	2.15
COc1nc(N)c2[nH]cnc2n1	10
OCC(S)CS (stereo not drawn)	8.62
CN(C)Cc1cc(C(C)(C)C)ccc1O	11.5
O=C(O)CCCc1cccs1	4.54
CC(=O)C1=CC=CC1	8.84
Oc1ccc(/N=N/c2nc3ccccc3s2)c2cccnc12	7.2
[NH3+][C@H]1CC(=O)NC1=O	5.9
O=[N+]([O-])/C=C/c1ccc(O)cc1	7.98
Nc1n[nH]cc1[N+](=O)[O-]	9.73
O/C(=C/c1cccnc1)c1ccccc1	8.79
O=C(c1ccccc1)c1ccc([O-])[n+](O)c1	5.13
CCCCS(=O)O	2.2
C[NH+](C)CCCCCCCCCNC(=O)/C=N/O	8.99
O=Cc1cccc(O)c1	8.86
O=C(O)c1cccnn1	3
[NH3+]CC(=O)N1CCC[C@H]1C(=O)O	2.95
O=C(O)Cc1nnn[nH]1	3.1
C/C(=N/O)c1ccc([O-])cc1O	9.72
O=C1[N-]C(=O)/C(=N/O)C(=O)N1	10.1
O=C(O)CSc1cccc([N+](=O)[O-])c1	3.4
O=C1CC(c2ccccc2)NC(=O)N1 (stereo not drawn)	11.2
C=C(C)[C@H]1C[NH2+][C@H](C(=O)O)[C@H]1CC(N)=O	2.01

Same assay, conditions: basic group

Structure (SMILES)	pKa
O=C([O-])C(NCC[NH2+]C(C(=O)[O-])c1ccccc1O)c1ccccc1O (stereo not drawn)	6.32
COc1ccc2nccc(N)c2c1	8.94
CC(c1ccccc1)N1CC(O[Si](C)(C)C)C1 (stereo not drawn)	7.82
O=C(Nc1cccnc1)c1ccccc1	3.8
CC(C)([Se-])CN	10.9
COC(=O)[C@@H](N)Cc1c[nH]cn1	7.33
COc1cc(C(N)=O)ccc1-c1nc2nn(C)cc2[nH]1	3.98
CNCc1ccccc1	9.64
C1CCN(N2CCCC2)C1	7.16
CN1CC[C@]23c4c5ccc(OCc6ccccc6)c4O[C@H]2[C@@H](O)C=C[C@H]3[C@H]1C5	8.07
CN(O)Cc1ccccc1	4.6
C[NH2+]Cc1ccccn1	2.91
COc1cccc(CN(C)C)c1O	8.42
CN(C)CCc1c[nH]c2ccc([O-])cc12	11.2
Cc1nc2ccccc2nc1[O-]	9.88
N#Cc1cc(-c2ccccc2)nnc1NCC[NH+]1CCOCC1	0.5
Cc1cc2c(cc1N)Sc1cc([NH+](C)C)ccc1N2	4.81
CC(C)[C@@H]1CC[C@@H](C)C[C@@H]1N	10.5
CN(C)CCC/N=C(\c1ccccc1)c1ccccc1-c1ccccc1	9.2
O=C(CN1CCOCC1)NCc1ccccc1	4.98
CC(C)(C)c1ccncc1	5.95
CNc1ncnc2scnc12	2.84
O=P([O-])([O-])C(NCc1ccncc1)c1ccccc1[O-] (stereo not drawn)	12.2
CNc1nccn2cc(-c3ccc(S(C)=O)cc3OC)nc12 (stereo not drawn)	5.36
O=C(CCN1CCCCC1)c1ccccc1	9.23

Structure (SMILES)	pKa
CCCCCCCCCCCCCCN(CC(C)O)CC(C)O (stereo not drawn)	8.4
CN1Cc2c(ccc3c2OCO3)-c2ccc3cc4c(cc3c21)OCO4	2.6
Nc1ccc(-c2cnc(-c3ccc(Cl)cc3)o2)cc1	3.52
Nc1nc([O-])c2ncn([C@H]3O[C@@H](CO)[C@H](O)[C@@H]3O)c2n1	9.41
COc1ccc(C[NH3+])cc1N	4.16
COc1ccc(NCO)cc1	3.72
COc1cc(N)c(C#N)c(N)n1	4.17
Cn1/c(=N\N)sc2ccccc21	6.1
C[C@@H]([C@H](O)c1ccccc1)N(C)C	9.22
CC12CN3CC(C)(C1)CC(C)(C3)C2	10.7
OCCCCc1cccnc1	5.7
C#CC(CC)(CC)N(C)C(C)C	8.8
CN(C)Cc1ccccc1	8.97
COC(=O)C1CCCN(C)C1 (stereo not drawn)	8.45
Cc1cc([O-])nc2c1CCO2	8.44
CCC(C)(N)C(=O)[O-] (stereo not drawn)	9.98
Cn1cnc2cnc([O-])nc21	9.19
COc1nc(N)c2[nH]cnc2n1	3.7
Cc1cc(-c2ccccc2)nn2cc(C[NH+]3CCOCC3)nc12	1.5
CN(C)Cc1cc(C(C)(C)C)ccc1O	8.55
COc1ccc(C2CN2)cc1 (stereo not drawn)	8.7
CC1=C(CC(C)NCC(O)c2ccc(Cl)cc2)CCC1(C)C (stereo not drawn)	8.55
Cc1cnc2c(ccc3cc(C)cnc32)c1	5.23
CCCN(N)CCC	7
Clc1cccc(Nc2ccccc2)c1	2.34

Structure (SMILES)	pKa
CCc1cccc(CN(C)C)c1O	8.02
O/C(=C/c1cccnc1)c1ccccc1	5.84
[S-]c1nccc[nH+]1	1.3
CC1(C)S[C@H]2C(C(=O)[O-])N=C(CCCC(N)C(=O)[O-])N2C1C(=O)[O-] (stereo partly drawn)	10.3
COc1cccc(C(=N)c2ccccc2)c1	6.59
c1ccc(-c2ccc3ncc(C[NH+]4CCOCC4)n3n2)cc1	2.91
Cc1cc(Br)cc(C)c1N	3.54
Cc1ccnnc1C	4.1
Cc1nccnc1C	2.24
N/C(CC([NH3+])c1ccccc1)=N\O (stereo not drawn)	3.75
CCOCCn1c(N2CCC[NH+](CCCCn3cc(C(=O)[O-])cn3)CC2)nc2ccccc21	5.1
CN(C)N	7.16
Nc1cccnc1	6.08
Cc1nc(-c2ccccc2SCc2ccccc2)[nH]c1C	7
Cc1ccc(S(=O)(=O)[N-]CCC(=N)N)cc1	10.8
Cc1cc(C)cc(C(=N)c2ccccc2)c1	6.82
[NH3+]CCC(=O)NC(Cc1c[nH]cn1)C(=O)[O-] (stereo not drawn)	7.08
C=CCNCC=C	9.35
CN(C)N(C)C	6.19
CC[NH+](CC)CCNc1cc(C)nc(Nc2ccc(Cl)cc2)n1	6.65
CN(C)CCNCCN	9.91
CCCCCCN(CC(C)O)CC(C)O (stereo not drawn)	8.5
CCCCNCCCCCCNCCCC	11.3
CC(C)c1ccccc1N	4.42
